Measured values from patent US20150045425A1, “PELTATIN AND METABOLIC DISORDERS” (NESTEC S.A., priority 2012, published 2015).

Test system: HeLa cells
Experiment: Cellular toxicity, standard method, compared to untreated cells
Format: cell-based, human
Details: up to highest dose used
Method: The AC50 (upper part of the insert) and the maximum % activation (lower part of the insert) are given. Cellular toxicity was also assessed with standard method compared to untreated cells and shown in % of toxicity.
An edible plant fraction library was tested for PPARs agonist activity and toxicity. Then relevant plant fractions were further analyzed and bioactive(s) characterized and validated with the same hPPARa, hPPARg or hPPARd reporter bioassays. The reporter bioassay we used in order to identify anti-inflammatory plant properties targeted activation of human PPARs in human HeLa cells (as described in the FIG. 1). All isolated bioactives were tested in a dose response manner in duplicate. Assays were repeated 3-4 times. Shown are mean values obtained. Therefore specificity (for all the three known human PPAR receptors namely PPARa, PPARd and PPARg) and efficacy (full agonist i.e. % maximal activity >100% or partial agonist i.e. % maximal activity <100%) were tested (FIG. 2-4).

Measured: Cellular toxicity (% of toxicity)

COc1cc([C@@H]2c3cc4c(c(O)c3C[C@H]3COC(=O)[C@@H]32)OCO4)cc(OC)c1OC [beta-Peltatin]
no toxicity was observed: FIG. 2, PPARa activation dose-response | FIG. 3, PPARg activation dose-response | FIG. 4, PPARd activation dose-response
